The structures appear in SMILES notation.

This assay relates to A. baumannii strain ATCC17978. In words: 50% growth inhibitory concentration (IC50) determination, Iso-Sensitest broth. Particulars: Acinetobacter baumannii; A. baumannii ATCC17978; Iso-Sensitest medium; OD 600 nm over 16 h; read-out: IC50 ATCC17978. Type of assay: cell-based. As to the method: The in vitro antimicrobial activity of the compounds was alternatively determined according to the following procedure:
The assay used a 10-points Iso-Sensitest broth medium to measure quantitatively the in vitro activity of the compounds against A. baumannii ATCC 17978.
Stock compounds in DMSO were serially twofold diluted (e.g. range from 50 to 0.097 μM final concentration) in 384 wells microtiter plates and inoculated with 49 μl the bacterial suspension in Iso-Sensitest medium to have a final cell concentration of ˜5×10^(5) CFU/ml in a final volume/well of 50 ul/well. Microtiter plates were incubated at 35±2° C.
Bacterial cell growth was determined with the measurement of optical density at λ=600 nm each 20 minutes over a time course of 16 h.
Growth inhibition was calculated during the logarithmic growth of the bacterial cells with determination of the concentration inhibiting 50% (IC50) and 90% (IC90) of the growth.
Tables 3, 4 and 5 provide the 50% growth inhibitory concentrations (IC50) in micromoles per liter of the compounds of present invention obtained against the A. baumannii strain ATCC17978.
As to `CN1C(=O)[C@H](CCC(N)=O)NC(=O)[C@H](CCCN)NCc2ccccc2Sc2c(cc(-c3ccccc3)cc2C(F)(F)F)CNC(=O)[C@@H]1Cc1c[nH]c2ccccc12` [Example 161, 3-[(11S,14S,17S)-11-(3-Amino-propyl)-17-(1H-indol-3-ylmethyl)-16-methyl-12,15,18-trioxo-23-phenyl-25-trifluoromethyl-2-thia-10,13,16,19-tetraaza-tricyclo[19.4.0.0*3,8*]pentacosa-1(25),3,5,7,21,23-hexaen-14-yl]-propionamide], the IC50 turned out to be 6800 nM. On to `CN1C(=O)[C@H](CCCCN)NC(=O)[C@H](CCCN)NCc2ccccc2Sc2c(ccc(-c3ccccc3)c2Cl)CNC(=O)[C@@H]1Cc1c[nH]c2ccccc12` [Example 176, (12S,15S,18S)-15-(4-Amino-butyl)-18-(3-amino-propyl)-4-chloro-12-(1H-indol-3-ylmethyl)-13-methyl-5-phenyl-2-thia-10,13,16,19-tetraaza-tricyclo[19.4.0.0*3,8*]pentacosa-1(25),3,5,7,21,23-hexaene-11,14,17-trione], for which the IC50 was 5100 nM. As for `CN1C(=O)[C@H](CCCCN)NC(=O)[C@H](CCCN)NCc2ccccc2Sc2c(-c3ccncc3)ncc(Cl)c2CNC(=O)[C@@H]1Cc1c[nH]c2ccccc12` [Example 195], the figure is 3000 nM; as for `COc1cc(-c2ncc(Cl)c3c2Sc2ccccc2CN[C@@H](CCCN)C(=O)N[C@@H](CCCCN)C(=O)N(C)[C@@H](Cc2c[nH]c4ccccc24)C(=O)NC3)ccn1` [Example 196], 100 nM. Then `CN1C(=O)[C@H](CCCCN)NC(=O)[C@H](CCCN)NCc2cccnc2Sc2c(Cl)ccc(-c3ccc(S(=O)(=O)NCCO)cc3)c2CNC(=O)[C@@H]1Cc1c[nH]c2ccccc12` [Example 246, 4-[(11S,14S,17S)-14-(4-Amino-butyl)-11-(3-amino-propyl)-25-chloro-17-(1H-indol-3-ylmethyl)-16-methyl-12,15,18-trioxo-2-thia-4,10,13,16,19-pentaaza-tricyclo[19.4.0.0*3,8*]pentacosa-1(25),3(8),4,6,21,23-hexaen-22-yl]-N-(2-hydroxy-ethyl)-benzenesulfonamide], with below 100 nM; and `CN1C(=O)[C@H](CCCCN)NC(=O)[C@H](CCCN)NCc2cccnc2Sc2c(Cl)ccc(-c3ccc(OC4CCNCC4)cc3)c2CNC(=O)[C@@H]1Cc1c[nH]c2ccccc12` [Example 242, (11S,14S,17S)-14-(4-Amino-butyl)-11-(3-amino-propyl)-25-chloro-17-(1H-indol-3-ylmethyl)-16-methyl-22-[4-(piperidin-4-yloxy)-phenyl]-2-thia-4,10,13,16,19-pentaaza-tricyclo[19.4.0.0*3,8*]pentacosa-1(25),3(8),4,6,21,23-hexaene-12,15,18-trione], with below 200 nM; and `CN1C(=O)[C@H](CCCCN)NC(=O)[C@H](CCCN)NCc2cc(Br)ccc2Sc2c(Cl)cccc2CNC(=O)[C@@H]1Cc1c[nH]c2ccccc12` [Example 206, (12S,15S,18S)-15-(4-Amino-butyl)-18-(3-amino-propyl)-23-bromo-4-chloro-12-(1H-indol-3-ylmethyl)-13-methyl-2-thia-10,13,16,19-tetraaza-tricyclo[19.4.0.0*3,8*]pentacosa-1(25),3,5,7,21,23-hexaene-11,14,17-trione], with 1400 nM.

In the case of `NCCCC[C@@H]1NC(=O)[C@@H](CCCN)NCc2cccnc2Sc2c(ccc(-c3ccccc3)c2Cl)CNC(=O)[C@H](Cc2c[nH]c3ccccc23)NC1=O` [Example 124, (11R,14S,17S)-14-(4-Amino-butyl)-11-(3-amino-propyl)-25-chloro-17-(1H-indol-3-ylmethyl)-24-phenyl-2-thia-4,10,13,16,19-pentaaza-tricyclo[19.4.0.0*3,8*]pentacosa-1(25),3,5,7,21,23-hexaene-12,15,18-trione], the IC50 came to 34900 nM. As for `CN1C(=O)[C@H](CCCCN)NC(=O)[C@H](CCCN)NCc2cccnc2Sc2ccc(Br)nc2CNC(=O)[C@@H]1Cc1c[nH]c2ccccc12` [Example 197, (7S,10S,13S)-13-((1H-Indol-3-yl)methyl)-10-(4-aminobutyl)-7-(3-aminopropyl)-18-bromo-12-methyl-6,7,9,10,12,13,15,16-octahydrodipyrido[2,3-b:2′,3′-p][1,5,8,11,14]thiatetraazacycloheptadecine-8,11,14(5H)-trione], the figure is 200 nM. Then `CN1C(=O)[C@H](CCCCN)NC(=O)[C@H](CCCN)NCc2cccnc2Sc2ccc(N3CCOCC3)nc2CNC(=O)[C@@H]1Cc1c[nH]c2ccccc12` [Example 218, (7S,10S,13S)-13-((1H-Indol-3-yl)methyl)-10-(4-aminobutyl)-7-(3-aminopropyl)-12-methyl-18-morpholino-6,7,9,10,12,13,15,16-octahydrodipyrido[2,3-b:2′,3′-p][1,5,8,11,14]thiatetraazacycloheptadecine-8,11,14(5H)-trione], with 2000 nM. As for `CN1C(=O)[C@H](CCCCN)NC(=O)[C@H](CCCN)NCc2ccccc2Sc2c(Cl)cc(-c3ccncc3)cc2CNC(=O)[C@@H]1Cc1c[nH]c2ccccc12` [Example 143, (12S,15S,18S)-15-(4-Amino-butyl)-18-(3-amino-propyl)-4-chloro-12-(1H-indol-3-ylmethyl)-13-methyl-6-pyridin-4-yl-2-thia-10,13,16,19-tetraaza-tricyclo[19.4.0.0*3,8*]pentacosa-1(25),3,5,7,21,23-hexaene-11,14,17-trione], the figure is below 400 nM. Regarding `CN1C(=O)[C@H](CCCCN)NC(=O)[C@H](CCCN)NCc2cccnc2Sc2c(Cl)ccc(C(F)(F)F)c2CNC(=O)[C@@H]1Cc1ccc2ccccc2n1` [Example 132, (11S,14S,17S)-14-(4-Amino-butyl)-11-(3-amino-propyl)-25-chloro-16-methyl-17-quinolin-2-ylmethyl-22-trifluoromethyl-2-thia-4,10,13,16,19-pentaaza-tricyclo[19.4.0.0*3,8*]pentacosa-1(25),3,5,7,21,23-hexaene-12,15,18-trione], the IC50 turned out to be 17000 nM. `CN1C(=O)[C@H](CCCCN)NC(=O)[C@H](CCCN)NCc2ccccc2Sc2c(N3CCOCC3)ncc(Cl)c2CNC(=O)[C@@H]1Cc1c[nH]c2ccccc12` [Example 201]: the IC50 was 400 nM.

Turning to `CN1C(=O)[C@H](CCCCN)NC(=O)[C@H](CCCN)NCc2cccnc2Sc2c(Cl)ccc(-c3ccc(N4CCNCC4)cc3)c2CNC(=O)[C@@H]1Cc1c[nH]c2ccccc12` [Example 245, (11S,14S,17S)-14-(4-Amino-butyl)-11-(3-amino-propyl)-25-chloro-17-(1H-indol-3-ylmethyl)-16-methyl-22-(4-piperazin-1-yl-phenyl)-2-thia-4,10,13,16,19-pentaaza-tricyclo[19.4.0.0*3,8*]pentacosa-1(25),3(8),4,6,21,2-hexaene-12,15,18-trione], the IC50 is below 100 nM. Then `CN1C(=O)[C@H](CCCCN)NC(=O)[C@H](CCCN)NCc2ccccc2Sc2c(Cl)cncc2CNC(=O)[C@@H]1Cc1c[nH]c2ccccc12` [Example 158], with below 390 nM; and `CN1C(=O)[C@H](CCCCN)NC(=O)[C@H](CCCN)NCc2ccccc2Sc2c(Cl)cc(Br)cc2CNC(=O)[C@@H]1Cc1c[nH]c2ccccc12` [Example 151, (12S,15S,18S)-15-(4-Amino-butyl)-18-(3-amino-propyl)-6-bromo-4-chloro-12-(1H-indol-3-ylmethyl)-13-methyl-2-thia-10,13,16,19-tetraaza-tricyclo[19.4.0.0*3,8*]pentacosa-1(25),3,5,7,21,23-hexaene-11,14,17-trione], with 200 nM.

(Values after patent publication US10030047B2 (Hoffmann-La Roche Inc., priority 2015, dated 2018).)
